For twelve compounds, IC50 results are on record in patent publication US8309550B2, “Kinase inhibitors and their use as pharmaceutical agents” (Shanghai Genomics, Inc., priority 2011, dated 2012).

Test [1] has as its system MCF7. The test can be described thus: 72 h MTT cytotoxicity assay MCF7. Format: cell-based. The conditions noted are these: Homo sapiens; MCF7, 72 hrs. An excerpt: (§1) MIT cytotoxicity assay. The compounds of the invention were subjected to a standard cellular proliferation assay using human cell lines. HeLa cells (Human cervix adenocarcinoma cell line, ATCC NO, CCL-2); A549 cells (Human lung carcinoma cells line, ATCC NO, CCL-185); U2OS cells (Human osteosarcoma cell line, ATCC NO, HTB-96); Eca-109 cells (Human esophageal carcinoma cell line); HepG2 (Human hepatocellular liver carcinoma cell line, ATCC NO, HB-8065); K562 cells (Human chronic myelogenous leukemia cell line, ATCC NO, CCL-243); SK-MEL-28 (Human malignant melanoma cell line, ATCC NO, HTB-72); Molt-4 (Human acute lymphoblastic leukemia cell line, ATCC NO, CRL-1582); H460 (Human large cell lung cancer cell line, ATCC NO, HTB-177); MDA-MB-231 (Human breast adenocarcinoma cell line, ATCC NO, HTB-26); MCF7 (Human breast adenocarcinoma cell line, ATCC NO, HTB-22); ACHN (Human renal cell adenocarcinoma cell line, ATCC NO, CRL-1611); PC-3M (Human prostate adenocarcinoma cell line, ATCC NO CRL-1435); HL60 (Human acute promyelocytic leukemia cell line, ATCC NO, CCL-240); THP-1 (Human acute monocytic leukemia, ATCC NO, TIB-202); Jurkat (Human acute T cell leukemia cell line, ATCC NO, CRL-2063); HCT-116 (Human colorectal carcinoma cell line, ATCC NO, CCL-247); HT-29 (Human colorectal adenocarcinoma cell line, ATCC NO, HTB-38™); WI-38 (Human normal lung cell line, ATCC NO, CCL-75); MRC-5 (Human normal lung cell line, ATCC NO, CCL-171).
(§2) HepG2, MDA-MB-231, WI-38 and MRC-5 cells were obtained from Shanghai Institute of Cell Biology, Chinese Academy of Sciences (Shanghai 200031, China). A549, HeLa, K562, MCF7, ACHN, H460, U2OS, Eca-109, MCF7, HL60, THP-1, Jurkat, HCT-116, HT-29, PC-3M, SK-MEL-28, Molt-4, H460 and […] cells were purchased from ATCC (American Type Culture Collection, USA).
(§3) Standard 72 h MTT (thiazolye blue; 3-[4,5-dimethylthiazol-2-yl]-2,5-diphenyltetrazolium bromide) assays were performed. Briefly, the cell lines used in this study were recovered and cultured according to the conditions recommended. 4000 cells per well were seeded into 96-well plates according to doubling time and incubated overnight at 37° C. Compounds were prepared in DMSO and a ½ dilution series in 100 μl cell culture media, added to cells (in duplicates) with the final DMSO concentration of 0.025%, and incubated for 72 hrs at 37° C. MTT solution (5 mg/ml) was added at 10 μl per well and incubated in the dark at 37° C. for 4 hr. Culture medium and MTT solution was removed. MTT dye was solubilised with 100 μl per well of DMSO with agitation. Absorbance was read at 562 nm and data analyzed using Sigmoid curve-fitting software Origin 6.0 (MicroCal, LLC, USA) to determine IC50 value.
For orientation: Formazan colour is commonly taken as a measure of viable cells.

For test [2], the system named is HepG2. Description: 72 h MTT cytotoxicity assay HepG2. As to conditions: Homo sapiens; HepG2, 72 hrs. Format: cell-based.
Text: as §1, §2, §3

The target in test [3] is CDK9T1 (Homo sapiens, UniProt P50750). Description: Kinase assay CDK9T1 (Table I). Format: biochemical. As to conditions: read-out: Kinase inhibition, IC50 CDK9T1.
CDK9T1, sequence (P50750 whole entry): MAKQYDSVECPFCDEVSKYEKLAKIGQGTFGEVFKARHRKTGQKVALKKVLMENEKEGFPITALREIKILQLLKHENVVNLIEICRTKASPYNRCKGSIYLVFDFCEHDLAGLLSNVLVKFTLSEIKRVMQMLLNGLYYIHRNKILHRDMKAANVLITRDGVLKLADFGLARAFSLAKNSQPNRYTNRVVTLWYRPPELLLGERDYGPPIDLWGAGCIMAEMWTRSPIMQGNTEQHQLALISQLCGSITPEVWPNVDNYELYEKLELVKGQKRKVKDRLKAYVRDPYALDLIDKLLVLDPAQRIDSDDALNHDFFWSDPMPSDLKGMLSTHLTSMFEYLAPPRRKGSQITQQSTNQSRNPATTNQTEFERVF
CDK9T1, sequence (O60563 whole entry partner): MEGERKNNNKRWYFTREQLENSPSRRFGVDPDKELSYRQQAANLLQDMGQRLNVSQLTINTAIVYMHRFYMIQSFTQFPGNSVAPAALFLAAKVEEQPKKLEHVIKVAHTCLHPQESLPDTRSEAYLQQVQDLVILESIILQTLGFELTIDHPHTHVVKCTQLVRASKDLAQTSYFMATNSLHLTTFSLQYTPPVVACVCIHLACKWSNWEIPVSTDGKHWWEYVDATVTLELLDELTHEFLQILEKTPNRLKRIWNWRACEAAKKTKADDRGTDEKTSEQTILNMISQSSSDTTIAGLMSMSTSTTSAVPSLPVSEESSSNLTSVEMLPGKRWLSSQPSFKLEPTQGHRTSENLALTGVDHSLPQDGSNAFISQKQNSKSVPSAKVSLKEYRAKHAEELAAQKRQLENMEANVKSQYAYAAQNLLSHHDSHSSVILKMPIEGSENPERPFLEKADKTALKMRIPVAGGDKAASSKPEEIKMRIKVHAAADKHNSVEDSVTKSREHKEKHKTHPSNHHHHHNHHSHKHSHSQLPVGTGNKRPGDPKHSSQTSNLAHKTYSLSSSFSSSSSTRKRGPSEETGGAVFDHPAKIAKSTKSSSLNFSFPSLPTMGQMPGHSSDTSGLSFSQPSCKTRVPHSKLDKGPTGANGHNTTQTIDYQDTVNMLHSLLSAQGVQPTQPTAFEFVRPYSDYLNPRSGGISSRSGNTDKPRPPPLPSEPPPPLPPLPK
The subject of test [4] is A549 cells. The test can be described thus: 72 h MTT cytotoxicity assay A549. Format: cell-based. As to conditions: Homo sapiens; A549, 72 hrs.
Text: as §1, §2, §3

The subject of test [5] is K562 cells. Description: 72 h MTT cytotoxicity assay K562. Format: cell-based. As to conditions: Homo sapiens; K562, 72 hrs.
Text: as §1, §2, §3

Test [6] relates to Eca-109 cells. Description: 72 h MTT cytotoxicity assay Eca-109. Format: cell-based. The conditions noted are these: Homo sapiens; Eca-109, 72 hrs.
Text: as §1, §2, §3

The subject of test [7] is MDA-MB-231-luc. The test can be described thus: 72 h MTT cell viability MDA-MB-231-luc. Format: cell-based. The conditions noted are these: Homo sapiens.
Text: as §1, §2, §3

For test [8], the system named is PC-3M-luc. The test can be described thus: 72 h MTT cell viability PC-3M-luc. The test is classed as cell-based. As to conditions: Homo sapiens.
Text: as §1, §2, §3

Test [9] deals with WI-38. The test can be described thus: 72 h MTT cell viability WI-38 (normal lung). The test is classed as cell-based. As to conditions: Homo sapiens; WI-38, normal lung cell line.
Text: as §1, §2, §3

Test [10] relates to SK-MEL-28-luc. Description: 72 h MTT cytotoxicity assay SK-MEL-28-luc. The test is classed as cell-based. The conditions noted are these: Homo sapiens.
Text: as §1, §2, §3

Test [11] relates to HCT 116. The test can be described thus: 72 h MTT cell viability HCT 116. Format: cell-based. As to conditions: Homo sapiens.
Text: as §1, §2, §3

For test [12], the system named is HL-60. The test can be described thus: 72 h MTT cell viability HL-60. Format: cell-based. As to conditions: Homo sapiens.
Text: as §1, §2, §3

The subject of test [13] is THP-1. The test can be described thus: 72 h MTT cell viability THP-1. Format: cell-based. As to conditions: Homo sapiens.
Text: as §1, §2, §3

Test [14] concerns HT-29. Description: 72 h MTT cell viability HT-29. The test is classed as cell-based. As to conditions: Homo sapiens.
Text: as §1, §2, §3

Test [15] deals with Jurkat. Description: 72 h MTT cell viability Jurkat. The test is classed as cell-based. As to conditions: Homo sapiens.
Text: as §1, §2, §3

The mark [16] stands for this setting: read-out: Cell Viability IC50 HCT 116.
[17] abbreviates: THP-1, read-out: Cell Viability IC50 THP-1.
The mark [18] stands for this setting: read-out: Cell Viability IC50 HT-29.
The mark [19] stands for this setting: read-out: Cell Viability IC50 Jurkat.
Setting [20] is: HCT116, Table III, read-out: Cellular effect in mammalian cells IC50 HCT116.
Where [21] appears, read: HT29, Table III, read-out: Cellular effect in mammalian cells IC50 HT29.
Where [22] appears, read: THP-1, Table III, read-out: Cellular effect in mammalian cells IC50 THP-1.
[23] abbreviates: Table III, read-out: Cellular effect in mammalian cells IC50 Jurkat.

Read-outs that look alike come from different tables or passages of the source.

`CCCn1cc(-c2ccnc(Nc3ccc(O)cc3)n2)c2cccnc21` [Compound 15, 4-(4-(1-Propyl-1H-pyrrolo[2,3-b]pyridin-3-yl)pyrimidin-2-ylamino)phenol]: the IC50 (commonly the concentration at which inhibition is half-maximal) came to 120 nM in [1]; 1160 nM in test [2]; 1400 nM in test [3]; 4980 nM in test [4]; 9810 nM in test [5]; 20000 nM in test [6]. Also, the IC50 in [7] was 5940 nM; in [8], 10500 nM; in test [9], more than 10000 nM; in [10] it was 9430 nM.
In the case of `CCCn1cc(-c2ccnc(Nc3cccc(O)c3)n2)c2cccnc21` [Compound 16, 3-(4-(1-Propyl-1H-pyrrolo[2,3-b]pyridin-3-yl)pyrimidin-2-ylamino)phenol], the IC50 was 2170 nM in test [1]; 1600 nM in [2]; 140 nM in test [3]; 3330 nM in test [4]; 7680 nM in [5]; 12900 nM in [6]. Also, the IC50 in test [7] was 5270 nM; in [8] it was 5110 nM; in test [9], more than 10000 nM; in test [10], 8510 nM.
Turning to `CCn1cc(-c2ccnc(Nc3cccc(C#N)c3)n2)c2cccnc21` [Compound 20, 3-(4-(1-Ethyl-1H-pyrrolo[2,3-b]pyridin-3-yl)pyrimidin-2-ylamino)benzonitrile], the IC50 is more than 10000 nM in [1]; 1810 nM in [2]; 150 nM in test [3]; more than 10000 nM in test [11] (setting [16]); 3070 nM in test [4]; 6110 nM in test [5]. Also, the IC50 is 3410 nM in test [12]; 2080 nM in test [13] (setting [17]); more than 10000 nM in test [6]; 4680 nM in [7]; more than 10000 nM in test [8]; 2930 nM in test [14] (setting [18]). In addition, the IC50 in test [15] (setting [19]) was determined as 3420 nM; in test [10], 7790 nM.
Consider `CCCn1cc(-c2ccnc(Nc3cccc(S(N)(=O)=O)c3)n2)c2cccnc21` [Compound 22, 3-(4-(1-Propyl-1H-pyrrolo[2,3-b]pyridin-3-yl)pyrimidin-2-ylamino)benzenesulfonamide], for which the IC50 in [1] turned out to be 1130 nM; in test [2], 700 nM; in test [3], 97 nM; in [11] (setting [16]) it was 1890 nM; in test [4], 2820 nM; in test [5], 1420 nM. Besides, the IC50 in test [12] came to 2090 nM; in test [13] (setting [17]) it was 3260 nM; in [6], 3400 nM; in test [8] it was 3190 nM; in test [14] (setting [18]), 1460 nM; in [15] (setting [19]), 1470 nM. The same compound returned an IC50 in test [10] of 2720 nM.
Take `CCCn1cc(-c2ccnc(Nc3ccc(C)c(S(=O)(=O)N4CCOCC4)c3)n2)c2cccnc21` [Compound 24, N-(4-Methyl-3-(morpholinosulfonyl)phenyl)-4-(1-propyl-1H-pyrrolo[2,3-b]pyridin-3-yl)pyrimidin-2-amine]: the IC50 in test [1] was determined as 3480 nM; in test [2], 1320 nM; in [3], 1010 nM; in [11] (setting [16]), 3430 nM; in test [4], 3690 nM; in [5], 3680 nM. The IC50 was 3490 nM in test [12]; 5250 nM in test [13] (setting [17]); 5300 nM in [6]; 5020 nM in [8]; 1350 nM in test [14] (setting [18]); more than 10000 nM in test [9]. For the same compound, the IC50 in test [15] (setting [19]) came to 1790 nM; in test [10] it was 3050 nM.
In the case of `CCCn1cc(-c2ccnc(Nc3cccc(S(N)(=O)=O)c3)n2)c2nc(Cl)cc(C)c21` [Compound 42, 3-(4-(5-Chloro-7-methyl-1-propyl-1H-pyrrolo[3,2-b]pyridin-3-yl)pyrimidin-2-ylamino)benzenesulfonamide], the IC50 in test [1] was more than 10000 nM; in test [2], 550 nM; in test [3], 41 nM; in test [11] (setting [16]), 3360 nM; in [4] it was 1730 nM; in test [5] it was more than 10000 nM. In addition, the IC50 in test [12] came out at 1140 nM; in test [6], 10500 nM; in test [7], 1280 nM; in [8] it was 4060 nM; in [14] (setting [18]) it was 200 nM; in test [10] it was 9450 nM.
Regarding `CCCn1cc(-c2ccnc(Nc3ccc(C)c(S(=O)(=O)N4CCOCC4)c3)n2)c2ccncc21` [Compound 102, N-(4-Methyl-3-(morpholinosulfonyl)phenyl)-4-(1-propyl-1H-pyrrolo[2,3-c]pyridin-3-yl)pyrimidin-2-amine], the IC50 in [1] is 1300 nM; in [2], 500 nM; in [3], 0.4 nM; in [4], 570 nM; in [5], 1440 nM; in test [12], 230 nM. Besides, the IC50 in [6] is 3520 nM; in test [7], 750 nM; in test [8] it was 1130 nM; in [10] it was 990 nM.
For `CCCn1cc(-c2ccnc(Nc3cccc(S(N)(=O)=O)c3)n2)c2ccncc21` [Compound 111, 3-(4-(1-Propyl-1H-pyrrolo[2,3-c]pyridin-3-yl)pyrimidin-2-ylamino)benzenesulfonamide], the IC50 stood at 80 nM in [1]; 580 nM in test [2]; 0.6 nM in test [3]; 10 nM in test [4]; 30 nM in test [5]; 10 nM in [12]. Further, the IC50 in test [13] (setting [17]) was determined as 10 nM; in test [6], 50 nM; in test [7], 30 nM; in test [8], 6 nM; in [15] (setting [19]) it was 5.4 nM; in test [10], 10 nM.
On to `CCCn1cc(-c2ccnc(Nc3cccc(S(N)(=O)=O)c3)n2)c2ccncc21` [SG51], for which the results for the IC50 in test [11] (setting [20]) and in test [14] (setting [21]) were 4 nM and 20 nM, respectively.
With `CCCn1cc(-c2ccnc(Nc3ccc(C)c(S(=O)(=O)N4CCOCC4)c3)n2)c2ccncc21` [SG52], the IC50 in test [11] (setting [20]) came to 280 nM; in test [13] (setting [22]), 410 nM; in test [14] (setting [21]), 450 nM; in test [15] (setting [23]) it was 690 nM.
Consider `CCCn1cc(-c2ccnc(Nc3cccc(S(N)(=O)=O)c3)n2)c2nc(Cl)cc(C)c21` [SG53], for which the IC50 in test [13] (setting [22]) came out at 1040 nM; in [15] (setting [23]), 360 nM.
As to `CCCn1cc(-c2ccnc(Nc3ccc(S(N)(=O)=O)cc3)n2)c2nc(Cl)cc(C)c21` [SG54], the IC50 worked out at 3460 nM in test [11] (setting [20]), 2950 nM in [13] (setting [22]), 150 nM in test [14] (setting [21]) and 1120 nM in test [15] (setting [23]).
